These results are taken from US9475806B2, “Complement factor B inhibitors and uses there of” (Novartis AG, priority 2013, dated 2016).

Molecules are shown by their SMILES. Like-named read-outs stand apart in the source and are kept apart here.

Assay [1] addresses T1, Recombinant human factor B (Homo sapiens (Human), UniProt P00751). In words: biochemical.
Assay [2] addresses T1, Recombinant human factor B.

T1 sequence (P00751 26-764): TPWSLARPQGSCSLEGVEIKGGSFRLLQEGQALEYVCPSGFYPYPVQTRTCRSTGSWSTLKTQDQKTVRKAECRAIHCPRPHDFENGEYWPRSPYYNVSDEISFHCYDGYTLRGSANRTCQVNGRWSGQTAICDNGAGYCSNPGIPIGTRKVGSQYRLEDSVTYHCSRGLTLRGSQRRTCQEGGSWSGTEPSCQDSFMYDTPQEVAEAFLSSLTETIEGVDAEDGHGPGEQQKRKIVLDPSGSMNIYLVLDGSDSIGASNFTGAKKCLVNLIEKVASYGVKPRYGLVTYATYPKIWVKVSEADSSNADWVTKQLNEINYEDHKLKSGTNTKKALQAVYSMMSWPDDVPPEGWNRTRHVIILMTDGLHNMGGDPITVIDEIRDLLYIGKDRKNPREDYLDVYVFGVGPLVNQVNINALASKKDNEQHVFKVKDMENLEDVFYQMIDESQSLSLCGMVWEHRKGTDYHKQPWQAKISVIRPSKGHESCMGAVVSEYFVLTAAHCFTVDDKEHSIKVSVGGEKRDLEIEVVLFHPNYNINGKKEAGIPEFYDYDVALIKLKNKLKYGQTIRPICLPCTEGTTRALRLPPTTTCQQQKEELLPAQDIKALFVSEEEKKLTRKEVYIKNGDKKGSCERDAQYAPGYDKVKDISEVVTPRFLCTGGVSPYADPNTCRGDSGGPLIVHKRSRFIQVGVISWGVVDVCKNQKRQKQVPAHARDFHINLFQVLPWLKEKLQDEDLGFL

Broadly, the IC50 is the midpoint of a concentration-inhibition curve. As to `CCc1cc(C)c2[nH]ccc2c1C(C)(NC)c1nc2cc(C#N)cnc2[nH]1` (racemic) [Example 15-D, (±)-2-(1-(5-Ethyl-7-methyl-1H-indol-4-yl)-1-(methylamino)ethyl)-3H-imidazo[4,5-b]pyridine-6-carbonitrile], the IC50 in assay [1] stood at 540 nM. Same read-out and setting: the result for `Cc1cc(C2CC2)c(C(O)c2nc3cc(C#N)cnc3[nH]2)c2cc[nH]c12` (racemic) [Example 16-G, (±)-2-((5-Cyclopropyl-7-methyl-1H-indol-4-yl)(hydroxy)methyl)-3H-imidazo[4,5-b]pyridine-6-carbonitrile] reads 460 nM; that for `Cc1cc(C2CC2)c(C(C)(O)c2nc3cc(C#N)cnc3[nH]2)c2cc[nH]c12` (racemic) [Example 17-C, (±)-2-(1-(5-Cyclopropyl-7-methyl-1H-indol-4-yl)-1-hydroxyethyl)-3H-imidazo[4,5-b]pyridine-6-carbonitrile], 60 nM.

Take `Cc1cc(C2CC2)c(C(N)(c2nc3cc(C#N)cnc3[nH]2)C(F)(F)F)c2cc[nH]c12` (racemic) [Example 17-G, (±)-2-(1-Amino-1-(5-cyclopropyl-7-methyl-1H-indol-4-yl)-2,2,2-trifluoroethyl)-3H-imidazo[4,5-b]pyridine-6-carbonitrile]: in assay [1], the 50% inhibitory concentration (IC50) worked out at 90 nM. For the molecule `COc1cc(C)c2[nH]ccc2c1C(N)(c1nc2cc(C#N)cnc2[nH]1)C(F)(F)F` (stereo not drawn) [5-B b) (+)], the IC50 in assay [2] worked out at 290 nM.

Consider `COc1cc(C)c2[nH]ccc2c1C(O)c1nc2ncc(C#N)cc2[nH]1` (stereo not drawn) [6-C b) (+)], for which the 50% inhibitory concentration (IC50) in assay [2] was found to be 700 nM. For `COc1cc(C)c2[nH]ccc2c1C(C)(O)c1nc2cc(C#N)cnc2[nH]1` (stereo not drawn) [7-D b) (+)], the concentration for half-maximal inhibition (IC50) in assay [2] came to 50 nM. Same read-out and setting: under `COc1cc(C)c2[nH]ccc2c1C(C)(OC)c1nc2cc(C#N)cnc2[nH]1` (stereo not drawn) [8-B b) (+)] stands 720 nM; under `CNC(c1nc2cc(C#N)cnc2[nH]1)(c1c(OC)cc(C)c2[nH]ccc12)C(F)(F)F` (stereo not drawn) [9-D b) (+)], 1520 nM. As to `COc1cc(C)c2[nH]ccc2c1C(C)(N)c1nc2cc(C#N)cnc2[nH]1` (stereo not drawn) [10-B b) (+)], the IC50 in assay [2] came to 1380 nM. Same read-out and setting: the result for `CNC(C)(c1nc2cc(C#N)cnc2[nH]1)c1c(OC)cc(C)c2[nH]ccc12` (stereo not drawn) [11-B b) (+)] reads 3140 nM.

Turning to `CCc1cc(C)c2[nH]ccc2c1C(O)(c1nc2cc(C#N)cnc2[nH]1)C(F)(F)F` (stereo not drawn) [14-I b) (+)], the half-inhibitory concentration (IC50) in assay [2] was 2350 nM. For the molecule `COc1cc(C)c2[nH]ccc2c1C(C)(C)c1nc2cc(C#N)cnc2[nH]1` [Example 12-D, 2-(2-(5-Methoxy-7-methyl-1H-indol-4-yl)propan-2-yl)-3H-imidazo[4,5-b]pyridine-6-carbonitrile], in assay [1], the IC50 was found to be 40 nM.
